Assays:
GLUT1-DS transgenic mice = test: Rotarod motor function in GLUT1-DS transgenic mice; type: in vivo, mouse; details: single administration 10 mg/kg, 20 min before rotarod
Source text: (§1) Heterozygous transgenic mice on 129/SvJ genetic background in which glucose transporter 1 (GLUT1) has been knocked down were used (GLUT1(+/−)) (Wang et al., 2016, Human Molecular Genetics, 15(7)). GLUT1-deficiency syndrome (GLUT1-DS) is a prototypic hypometabolic diseases caused by the mutation of GLUT1 and decreased levels of glucose and lactate in the brain (Tang et al., 2019, Annals of Clinical and Translational Neurology 6(9)). Mating colonies were composed of wild-type female mice and GLUT1-DS male mice, or GLUT1-DS female mice and wild-type male mice. F1 pups were genotyped after ear punching at weaning using PCR to determine genotype. Mice of 2 to 3 months of age were used.
Motor function was measured in wild-type (WT) and GLUT 1-DS transgenic mice in the rotarod after single administration of Veh. or compound (1) or (2) (10 mg/kg) 20 min before rotarod. Rotarod testing consisted in placing the mouse on an accelerating rotating rod (4 to 40 r.p.m.) during a maximum of 300 seconds. 3 consecutive sessions with 15 min apart were performed. Latency for the mouse to fall from the rod was recorded and the maximal latency over the 3 trials was used as a measure of motor function.

[1] = tested on: Wild-type (WT) and GLUT1-DS transgenic mice; test: Grip strength test in WT and GLUT1-DS transgenic mice; type: in vivo, mouse; details: 10 mg/kg, after rotarod session
Source text: as §1
Motor strength was measured on the grip strength test (Bioseb) after rotarod session. Wild-type (WT) and GLUT1-DS transgenic mice were placed with 4 paws on the grid and maximal grip strength was recorded over 2 sessions with 5 minutes apart. Maximal grip strength over the 2 sessions was recorded.

primary astrocytes [2] = test: Extracellular medium acidification (SNARF5) assay in astrocytes; type: cell-based; details: Mus musculus, Astrocyte; astrocytes in vitro; compounds 10 nM to 30 μM; read-out: Activity (EC50 class, extracellular medium acidification SNARF5)
Procedure: To assess for the effect of the compounds of the invention, those were tested in primary mouse astrocytes and astrocytes differentiated from human-derived induced pluripotent stem cells (iPSCs). Secretion of lactate was measured indirectly through the acidification of extracellular medium using extracellular pH sensor SNARE-5F-(AND-6)-CAR (SNARF5) as described below.
(§2) Primary cultures of cerebrocortical astrocytes were obtained from 1 to 2-day-old OF1 mouse pups (Charles River Laboratories). Briefly, cortices were isolated and minced in small pieces under a dissecting microscope. The cells were incubated for 30 min at 37° C. in a solution containing 20 U/ml papain, 1 mM L-cysteine and 10 kU/ml DNase I. After dissociation, papain activity was stopped by the addition of fetal calf serum (FCS). Single-cell suspension was then obtained by mechanical dissociation, which consisted in cells trituration in a DMEM D7777 medium supplemented with 44 mm NaHCO3, 10 ml/L antibiotic/antimycotic solution and 10% FCS. The cells were seeded at an average density of ˜10′000 cells/cm^2 on poly-D-lysine coated 96- or 12-well culture plates, depending on their use, and grown in DMEM D7777 medium supplemented with 44 mm NaHCO3, 10 ml/L antibiotic/antimycotic solution and 10% FCS at 37° C. in a humidified atmosphere containing 5% CO2/95% air. Culture medium was renewed twice a week. Cells were stimulated and harvested between DIV14 and DIV17, when confluence and cell growth were optimal.
Secretion of lactate was measured indirectly through the acidification of extracellular medium using extracellular pH sensor SNARF-5F-(AND-6)-CAR (SNARF5). After washing cells twice with stimulation medium (DMEM (D5030, Sigma), 1 mM […], and 5 mM Glucose, pH 7.4) at 37° C., cells were stimulated with compounds at a final concentration ranging from 10 nM to 30 μM in 50 μl per well of stimulation medium supplemented with 10 μM of SNARF5 (Life Technologies Corporation). Each compound was tested in two different plates for duplicates. After 30, 60 and 90 min stimulation, fluorescence was read at exc. (excitation) 480 nm/emm. (emission) 580 nm and at exc 480 nm/emm. 630 nm. The ratio of fluorescence between 630 nm and 580 emission values, which is proportional to extracellular pH, was calculated. In each plate, 8 wells were used for negative controls (DMSO 0.1%) and 8 wells were used for positive controls (CCCP 2 μM in DMSO). Results are shown as % of positive control effect (0% and 100% being activities of the Veh and positive control, respectively).

primary astrocytes [3] = test: MTT mitochondrial activity assay in primary astrocytes; type: cell-based, mouse; details: different concentrations, after 1.5 h or 24 h
Procedure: as §2
To monitor mitochondrial activity in astrocytes, which is linked to the metabolic process of glycolysis and production of lactate, astrocytes in 96-well plates were stimulated for 24 h (37° C. 5% CO2/95% air) with the compounds of the invention ranging from 10 nM to 10 μM.
After stimulation, 5 mg/ml thiazol blue tetrazolium bromide (MTT) in D5030 medium complemented with 5 mM D-glucose and 44 mM sodium bicarbonate (pH 7.2) was added to each well, and cells were incubated for 4 h at 37° C. (5% CO2). The medium was then removed and the amount of reduced MTT, i.e formazan, solubilized in DMSO (50 μl/well) was determined using a spectrophotometer (absorbance of 570 nm).
The mitochondrial activity was monitored in MTT colorimetric assay in primary astrocytes treated with Compounds (1), (2), (3), (4) (5), (9) and (10) at different concentrations after 1.5 h (FIG. 2 A, B, D, E, F, C, H, respectively) or 24 h (FIG. 2 H, I, K, L, M, J, N, respectively).

C57Bl/6J wild-type mice [4] = test: 18F-FDG PET glucose uptake in the brain; type: in vivo, mouse; details: gavage, 30 mg/kg, vs Vehicle
Procedure: (§3) All experiments were carried out in strict accordance with the Swiss Federal Guidelines for Animal Experimentation and were approved by the Cantonal Veterinary Office for Animal Experimentation (Canton of Geneva, Switzerland). Adult male C57Bl/6J wild-type mice weighting 18-28 g (8 to 12 weeks of age) were used (Charles River Laboratories). Animals were housed in groups of 3-5 in polypropylene cages (30×40×15 cm) with wire mesh top in a temperature (22±2° C.) and humidity (55±15%) controlled environment on a 12-hour light cycle (07.00-19.00 h lights on), except after surgeries when animal were housed individually. The samples (Vehicle or compounds of the invention) were administered per os (gavage) in a solution made of water supplemented with 0.4% hydroxypropyl methylcellulose (HPMC) Methocel 4 KM (w/v) and 0.25% Tween-20 (v/v), as previously described (Thackaberry et al., 2010, Toxicol Sci., 117(2):485-92). Concentrations of the compounds tested ranged from 3 to 30 mg/kg.
^18F-FDG PET Glucose uptake in the brain was measured in vivo using 18F-fluorodeoxyglucose (FDG) with positron emission tomography (PET) Scan. Mice were fasted for 12 hours before the scans PET/CT measurements. Compounds of the invention were administered by gavage, followed by an intraperitoneal injection of 5 MBq of ^18F-FDG in 300 μL of saline. […]

C57Bl/6J wild-type mice [5] = test: Lactate and glucose biosensors, cerebral extracellular levels in freely moving mice; type: in vivo, mouse; details: per os, doses 10 to 30 mg/kg, 3 hours, AUC ratio vs vehicle
Procedure: as §3
Cerebral extracellular levels of L-lactate and D-glucose were monitored in vivo using lactate and glucose biosensors (Pinnacle Technology), respectively, according to the manufacturer's instructions. Cannulae were surgically implanted in the medial prefrontal cortices (coordinates: −1.0 mm (to bregma), lateral+/−1.0 mm (to mideline), ventral −1.0 mm (to dura))) of isoflurane-anesthetized mice 5 to 7 days prior experiment. After surgery, mice were monitored closely and received analgesic treatment for at least 4 days. After mice had fully recovered from surgery, compounds of the invention of vehicle were administered per os as previously described and cerebral levels of extracellular lactate and glucose were dynamically recorded for 6 hours using biosensors. Mice were administered vehicle alone first, followed 3 hours later by vehicle or Compounds of the Invention. Concentrations of cerebral extracellular lactate and glucose were calculated from the biosensor electric signals using post-calibration values. […] Area Under the Curve (AUC) of lactate and glucose concentration curves were calculated using Graphad Prism and the ratio of AUC after drug over Vehicle administration was calculated. Extracellular concentrations of lactate and glucose were measured in real time in freely moving animals for 3 hours after administration of Vehicle or compounds (1) to (4) at doses ranging from 10 to 30 mg/kg (FIG. 5).

EC50 (primary astrocytes [2]) [nM]	Structure (SMILES)	rotarod performance (latency to fall) (GLUT1-DS transgenic mice)	muscle strength (grip strength) [1]	mitochondrial activity (MTT colorimetric assay) (primary astrocytes [3])	glucose uptake in the brain (18F-FDG in the whole brain) (C57Bl/6J wild-type mice [4])	extracellular glucose levels in the brain (C57Bl/6J wild-type mice [5])	extracellular lactate levels in the brain (C57Bl/6J wild-type mice [5])
< 1000	COc1cc2ccnc(Cc3ccc(N4CCCC4=O)cc3)c2cc1OC [Compound 1, 1-[4-[(6,7-dimethoxy-1-isoquinolyl)methyl]phenyl]pyrrolidin-2-one]	increased rotarod performance	did not lead to any difference on muscle strength	none of the selected compounds had direct effect on mitochondrial activity	increases glucose uptake in the brain	significantly increases extracellular glucose levels	significantly increases extracellular lactate levels
< 1000	COc1cc2ccnc(Nc3ccc(S(C)(=O)=O)cc3)c2cc1O [Compound 3, 6-methoxy-1-(4-methylsulfonylanilino)isoquinolin-7-ol]	–	–	none of the selected compounds had direct effect on mitochondrial activity	–	significantly increases extracellular glucose levels	significantly increases extracellular lactate levels
< 1000	COc1cc2c(Nc3ccc(S(C)(=O)=O)cc3)nccc2cc1O [Compound 4, 7-methoxy-1-(4-methylsulfonylanilino)isoquinolin-6-ol]	–	–	none of the selected compounds had direct effect on mitochondrial activity	–	significantly increases extracellular glucose levels	significantly increases extracellular lactate levels
